What was measured:
[1] = target: Cyclin-dependent kinase 7/ cyclin H (Homo sapiens) (UniProt P51946+P50613); assay: Inhibition of human CDK7/cyclin H at 18.6 nM by HotSpot assay relative to control; format: protein-complex assay
[2] = target: Insulin-like growth factor 1 receptor (Homo sapiens, UniProt P08069); settings: dose 18.6 nM
Description: Inhibition of human IGF1R at 18.6 nM by HotSpot assay relative to control

[3] = target: T1, cAMP-dependent protein kinase catalytic subunit PRKX (Homo sapiens) (UniProt P51817); assay: Inhibition of human PRKX at 18.6 nM by HotSpot assay relative to control
T1 sequence (whole entry): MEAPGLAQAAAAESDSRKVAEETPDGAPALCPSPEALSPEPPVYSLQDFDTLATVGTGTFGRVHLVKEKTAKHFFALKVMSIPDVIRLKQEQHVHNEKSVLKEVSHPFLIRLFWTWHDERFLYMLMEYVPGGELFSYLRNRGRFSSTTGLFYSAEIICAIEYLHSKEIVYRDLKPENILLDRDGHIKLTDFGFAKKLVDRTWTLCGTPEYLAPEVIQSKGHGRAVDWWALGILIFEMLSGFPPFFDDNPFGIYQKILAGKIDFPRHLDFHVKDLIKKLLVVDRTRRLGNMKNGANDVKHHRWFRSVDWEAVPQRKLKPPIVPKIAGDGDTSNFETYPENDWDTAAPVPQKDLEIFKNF

[4] = target: SRSF protein kinase 2 (Homo sapiens) (UniProt P78362); assay: Inhibition of human SRPK2 at 18.6 nM by HotSpot assay relative to control
[5] = target: Dual specificity protein kinase CLK3 (Homo sapiens) (UniProt P49761); assay: Inhibition of human CLK3 at 18.6 nM by HotSpot assay relative to control
[6] = target: T2, Interleukin-1 receptor-associated kinase 4 (Homo sapiens) (UniProt Q9NWZ3); assay: Inhibition of human IRAK4 at 18.6 nM by HotSpot assay relative to control
T2 sequence (whole entry): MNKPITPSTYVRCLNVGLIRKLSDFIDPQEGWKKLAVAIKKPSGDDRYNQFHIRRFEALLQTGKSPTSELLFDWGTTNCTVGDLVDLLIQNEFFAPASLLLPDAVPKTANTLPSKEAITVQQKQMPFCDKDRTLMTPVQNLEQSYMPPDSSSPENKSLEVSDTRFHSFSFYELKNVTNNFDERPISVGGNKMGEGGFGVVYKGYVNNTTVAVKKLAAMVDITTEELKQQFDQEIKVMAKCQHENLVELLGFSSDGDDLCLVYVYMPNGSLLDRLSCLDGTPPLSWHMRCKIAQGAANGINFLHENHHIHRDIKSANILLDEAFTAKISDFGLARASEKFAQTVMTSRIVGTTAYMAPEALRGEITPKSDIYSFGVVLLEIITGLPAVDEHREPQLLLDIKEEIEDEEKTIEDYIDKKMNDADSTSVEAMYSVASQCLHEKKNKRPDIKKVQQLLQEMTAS

[7] = target: T3, Serine/threonine-protein kinase 4 (Homo sapiens) (UniProt Q13043); assay: Inhibition of human STK4 at 18.6 nM by HotSpot assay relative to control
T3 sequence (whole entry): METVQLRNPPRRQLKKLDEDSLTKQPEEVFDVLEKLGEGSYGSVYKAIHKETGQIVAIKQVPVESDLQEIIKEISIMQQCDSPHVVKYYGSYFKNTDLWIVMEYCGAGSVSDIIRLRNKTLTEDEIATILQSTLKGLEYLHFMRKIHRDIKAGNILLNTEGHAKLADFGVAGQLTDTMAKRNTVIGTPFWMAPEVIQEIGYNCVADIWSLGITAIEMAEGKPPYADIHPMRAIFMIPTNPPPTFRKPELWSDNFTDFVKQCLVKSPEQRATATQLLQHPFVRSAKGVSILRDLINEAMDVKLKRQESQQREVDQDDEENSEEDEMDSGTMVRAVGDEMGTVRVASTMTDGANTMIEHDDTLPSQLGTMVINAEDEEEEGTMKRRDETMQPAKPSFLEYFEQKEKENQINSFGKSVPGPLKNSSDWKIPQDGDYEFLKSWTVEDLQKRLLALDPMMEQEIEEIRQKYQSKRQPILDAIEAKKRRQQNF

[8] = target: Casein kinase I isoform delta (Homo sapiens) (UniProt P48730); assay: Inhibition of human CK1d at 18.6 nM by HotSpot assay relative to control
[9] = target: Casein kinase II subunit alpha' (Homo sapiens) (UniProt P19784); assay: Inhibition of human CK2a2 at 1.82 nM by HotSpot assay relative to control
[10] = target: T4, Tyrosine-protein kinase receptor TYRO3 (Homo sapiens) (UniProt Q06418); assay: Inhibition of human SKY at 1.82 nM by HotSpot assay relative to control
T4 sequence (whole entry): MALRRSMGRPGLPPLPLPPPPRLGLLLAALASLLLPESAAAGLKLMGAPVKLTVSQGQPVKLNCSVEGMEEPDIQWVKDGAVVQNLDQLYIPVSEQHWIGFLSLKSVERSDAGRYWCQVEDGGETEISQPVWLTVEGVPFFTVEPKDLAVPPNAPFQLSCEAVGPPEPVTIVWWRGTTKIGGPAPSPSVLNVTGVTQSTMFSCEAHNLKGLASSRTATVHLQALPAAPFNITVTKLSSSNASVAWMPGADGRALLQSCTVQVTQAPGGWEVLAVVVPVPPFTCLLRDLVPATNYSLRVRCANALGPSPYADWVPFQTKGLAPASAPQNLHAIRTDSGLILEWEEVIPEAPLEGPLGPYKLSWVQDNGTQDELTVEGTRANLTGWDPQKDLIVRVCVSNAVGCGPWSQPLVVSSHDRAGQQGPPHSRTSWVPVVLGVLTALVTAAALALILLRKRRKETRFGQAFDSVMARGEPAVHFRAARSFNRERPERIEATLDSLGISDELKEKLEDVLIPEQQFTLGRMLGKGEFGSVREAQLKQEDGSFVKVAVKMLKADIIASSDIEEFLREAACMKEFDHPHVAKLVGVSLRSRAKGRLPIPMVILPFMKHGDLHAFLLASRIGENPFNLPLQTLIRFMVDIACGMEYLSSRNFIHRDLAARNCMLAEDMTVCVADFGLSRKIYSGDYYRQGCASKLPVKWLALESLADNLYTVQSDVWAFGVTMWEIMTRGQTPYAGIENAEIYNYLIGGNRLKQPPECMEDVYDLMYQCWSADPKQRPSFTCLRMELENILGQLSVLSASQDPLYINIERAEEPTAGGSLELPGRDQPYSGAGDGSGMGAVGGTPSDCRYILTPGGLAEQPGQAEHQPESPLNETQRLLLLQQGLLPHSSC

[11] = target: Misshapen-like kinase 1 (Homo sapiens) (UniProt Q8N4C8); assay: Inhibition of human MINK1 at 1.82 nM by HotSpot assay relative to control
[12] = target: CDK9/cyclin T1 (Homo sapiens) (UniProt O60563+P50750); assay: Inhibition of human CDK9/cyclin T1 at 1.82 nM by HotSpot assay relative to control; format: protein-complex assay
[13] = target: Platelet-derived growth factor receptor beta (Homo sapiens) (UniProt P09619); assay: Inhibition of human PDGFRb at 1.82 nM by HotSpot assay relative to control
Platelet-derived growth factor receptor beta (Homo sapiens), sequence (P09619 whole entry): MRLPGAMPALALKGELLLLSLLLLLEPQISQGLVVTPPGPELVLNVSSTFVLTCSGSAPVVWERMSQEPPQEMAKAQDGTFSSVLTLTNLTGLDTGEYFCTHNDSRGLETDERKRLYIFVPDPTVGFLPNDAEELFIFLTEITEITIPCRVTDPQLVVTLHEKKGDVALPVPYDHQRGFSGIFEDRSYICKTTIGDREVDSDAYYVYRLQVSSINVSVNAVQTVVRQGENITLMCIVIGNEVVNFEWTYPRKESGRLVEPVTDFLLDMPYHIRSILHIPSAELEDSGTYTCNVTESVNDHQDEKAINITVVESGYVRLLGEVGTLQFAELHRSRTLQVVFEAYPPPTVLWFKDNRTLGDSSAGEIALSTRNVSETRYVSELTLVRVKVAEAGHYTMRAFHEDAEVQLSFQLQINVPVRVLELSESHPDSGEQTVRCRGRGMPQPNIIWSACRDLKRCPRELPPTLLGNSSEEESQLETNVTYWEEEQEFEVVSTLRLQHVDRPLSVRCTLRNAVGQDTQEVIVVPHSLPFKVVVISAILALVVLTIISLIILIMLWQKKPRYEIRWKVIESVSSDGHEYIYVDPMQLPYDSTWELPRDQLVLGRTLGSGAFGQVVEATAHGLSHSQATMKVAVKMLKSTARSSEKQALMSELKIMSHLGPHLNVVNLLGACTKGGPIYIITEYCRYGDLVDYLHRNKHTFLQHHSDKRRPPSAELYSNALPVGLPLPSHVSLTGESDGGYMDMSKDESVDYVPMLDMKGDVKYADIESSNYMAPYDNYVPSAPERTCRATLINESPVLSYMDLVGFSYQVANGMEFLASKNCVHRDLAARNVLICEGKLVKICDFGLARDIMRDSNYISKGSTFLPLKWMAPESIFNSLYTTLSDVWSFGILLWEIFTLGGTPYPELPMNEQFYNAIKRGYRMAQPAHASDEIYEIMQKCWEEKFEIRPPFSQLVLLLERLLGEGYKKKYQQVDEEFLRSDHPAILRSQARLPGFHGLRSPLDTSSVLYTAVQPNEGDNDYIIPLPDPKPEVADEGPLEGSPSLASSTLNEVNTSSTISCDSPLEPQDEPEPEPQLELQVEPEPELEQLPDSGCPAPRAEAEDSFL

Misshapen-like kinase 1 (Homo sapiens), sequence (Q8N4C8 whole entry, looked up): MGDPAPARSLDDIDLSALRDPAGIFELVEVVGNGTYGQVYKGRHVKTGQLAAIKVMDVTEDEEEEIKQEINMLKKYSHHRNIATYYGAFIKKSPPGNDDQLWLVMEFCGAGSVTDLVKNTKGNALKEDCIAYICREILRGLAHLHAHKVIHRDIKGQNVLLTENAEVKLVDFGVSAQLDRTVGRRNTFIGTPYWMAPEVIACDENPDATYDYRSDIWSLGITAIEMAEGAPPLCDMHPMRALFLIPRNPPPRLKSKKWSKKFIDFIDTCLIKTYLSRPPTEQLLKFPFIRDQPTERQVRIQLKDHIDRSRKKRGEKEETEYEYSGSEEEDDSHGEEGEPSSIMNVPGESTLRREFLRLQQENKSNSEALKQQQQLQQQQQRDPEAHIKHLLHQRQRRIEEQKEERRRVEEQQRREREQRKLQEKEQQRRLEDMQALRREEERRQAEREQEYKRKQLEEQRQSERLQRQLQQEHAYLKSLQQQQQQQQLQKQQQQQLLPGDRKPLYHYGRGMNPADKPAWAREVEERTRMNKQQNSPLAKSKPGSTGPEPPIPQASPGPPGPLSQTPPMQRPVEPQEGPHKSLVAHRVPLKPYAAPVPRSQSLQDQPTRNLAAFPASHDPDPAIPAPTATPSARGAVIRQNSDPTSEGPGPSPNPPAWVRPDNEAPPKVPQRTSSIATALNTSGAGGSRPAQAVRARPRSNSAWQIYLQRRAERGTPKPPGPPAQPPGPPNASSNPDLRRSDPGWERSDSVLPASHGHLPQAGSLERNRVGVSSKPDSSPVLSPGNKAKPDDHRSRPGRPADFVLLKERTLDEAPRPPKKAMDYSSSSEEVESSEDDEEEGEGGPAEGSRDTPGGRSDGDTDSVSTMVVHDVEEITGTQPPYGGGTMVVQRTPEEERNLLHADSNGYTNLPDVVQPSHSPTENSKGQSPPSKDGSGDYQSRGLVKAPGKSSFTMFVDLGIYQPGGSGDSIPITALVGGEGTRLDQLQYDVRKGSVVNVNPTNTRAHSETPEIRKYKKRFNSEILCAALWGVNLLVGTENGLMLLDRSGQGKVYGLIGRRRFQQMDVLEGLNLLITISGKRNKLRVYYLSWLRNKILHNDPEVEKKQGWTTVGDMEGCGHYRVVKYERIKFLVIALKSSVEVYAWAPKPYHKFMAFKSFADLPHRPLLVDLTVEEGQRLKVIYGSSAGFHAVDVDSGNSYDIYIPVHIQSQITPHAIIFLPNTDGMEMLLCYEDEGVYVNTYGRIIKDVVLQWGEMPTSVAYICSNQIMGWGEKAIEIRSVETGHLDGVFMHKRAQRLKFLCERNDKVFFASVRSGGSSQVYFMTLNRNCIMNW
SRSF protein kinase 2 (Homo sapiens), sequence (P78362 whole entry, looked up): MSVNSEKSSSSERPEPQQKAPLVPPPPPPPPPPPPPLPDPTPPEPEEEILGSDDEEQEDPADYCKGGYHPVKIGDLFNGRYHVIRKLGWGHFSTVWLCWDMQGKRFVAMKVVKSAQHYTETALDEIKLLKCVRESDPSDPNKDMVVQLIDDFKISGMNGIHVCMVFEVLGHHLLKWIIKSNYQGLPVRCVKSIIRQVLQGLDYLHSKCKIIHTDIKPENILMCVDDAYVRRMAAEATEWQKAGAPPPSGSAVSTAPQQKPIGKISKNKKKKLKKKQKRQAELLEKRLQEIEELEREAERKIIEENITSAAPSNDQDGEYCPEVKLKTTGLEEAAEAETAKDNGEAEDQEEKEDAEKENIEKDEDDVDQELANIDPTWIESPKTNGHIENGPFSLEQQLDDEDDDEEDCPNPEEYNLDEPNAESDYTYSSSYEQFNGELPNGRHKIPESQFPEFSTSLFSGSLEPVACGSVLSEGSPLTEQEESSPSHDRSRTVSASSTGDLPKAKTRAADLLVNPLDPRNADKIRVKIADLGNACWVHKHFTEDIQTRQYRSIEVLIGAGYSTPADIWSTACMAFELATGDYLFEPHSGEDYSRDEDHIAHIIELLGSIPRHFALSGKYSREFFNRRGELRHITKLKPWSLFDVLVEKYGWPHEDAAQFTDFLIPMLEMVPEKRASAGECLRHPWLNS
Casein kinase I isoform delta (Homo sapiens), sequence (P48730 whole entry, looked up, canonical isoform): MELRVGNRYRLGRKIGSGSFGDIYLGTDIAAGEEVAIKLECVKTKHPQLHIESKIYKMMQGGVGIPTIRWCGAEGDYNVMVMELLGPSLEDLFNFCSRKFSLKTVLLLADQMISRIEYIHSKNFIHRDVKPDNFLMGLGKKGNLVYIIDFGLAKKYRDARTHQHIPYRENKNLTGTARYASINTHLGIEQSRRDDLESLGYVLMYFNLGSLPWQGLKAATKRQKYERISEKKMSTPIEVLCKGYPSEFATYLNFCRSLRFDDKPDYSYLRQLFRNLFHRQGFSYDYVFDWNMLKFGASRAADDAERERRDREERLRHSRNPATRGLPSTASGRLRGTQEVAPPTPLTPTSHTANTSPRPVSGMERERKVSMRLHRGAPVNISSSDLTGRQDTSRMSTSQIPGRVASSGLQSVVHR
Casein kinase II subunit alpha' (Homo sapiens), sequence (P19784 whole entry, looked up): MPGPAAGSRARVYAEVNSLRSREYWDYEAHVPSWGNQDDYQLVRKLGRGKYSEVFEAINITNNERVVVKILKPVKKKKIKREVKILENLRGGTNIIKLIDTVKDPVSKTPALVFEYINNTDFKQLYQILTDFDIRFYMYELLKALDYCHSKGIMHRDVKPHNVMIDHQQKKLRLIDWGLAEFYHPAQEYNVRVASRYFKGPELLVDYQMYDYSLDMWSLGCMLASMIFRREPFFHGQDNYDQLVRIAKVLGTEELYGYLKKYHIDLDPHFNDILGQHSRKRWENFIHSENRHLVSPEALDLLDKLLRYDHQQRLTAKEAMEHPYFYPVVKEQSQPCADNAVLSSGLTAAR
Dual specificity protein kinase CLK3 (Homo sapiens), sequence (P49761 whole entry, looked up): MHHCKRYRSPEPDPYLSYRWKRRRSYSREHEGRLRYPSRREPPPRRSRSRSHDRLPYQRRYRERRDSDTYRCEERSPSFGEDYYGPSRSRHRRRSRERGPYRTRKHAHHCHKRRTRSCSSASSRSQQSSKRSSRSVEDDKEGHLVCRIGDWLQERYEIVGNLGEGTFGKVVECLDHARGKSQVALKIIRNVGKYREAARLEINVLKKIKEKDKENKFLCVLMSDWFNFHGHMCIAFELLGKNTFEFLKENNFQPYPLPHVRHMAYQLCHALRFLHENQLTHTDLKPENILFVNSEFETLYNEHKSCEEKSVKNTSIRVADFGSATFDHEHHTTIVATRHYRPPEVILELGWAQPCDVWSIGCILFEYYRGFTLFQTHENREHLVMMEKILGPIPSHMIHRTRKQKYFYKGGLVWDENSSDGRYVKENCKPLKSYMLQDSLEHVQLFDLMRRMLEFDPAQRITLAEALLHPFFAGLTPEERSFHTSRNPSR

inhibition [1] | inhibition [2] | inhibition [3] | inhibition [4] | inhibition [5] | inhibition [6] | inhibition [7] | inhibition [8] | inhibition [9] | inhibition [10] | inhibition [11] | inhibition [12] | inhibition [13] | Structure (SMILES)
-4.42% | 66.3% | -0.35% | -1.64% | -0.8% | -2.53% | 6.04% | -2.47% | – | – | – | – | – | C[C@]1(O)C[C@@H](c2nc(-c3ccc4ccc(-c5ccccc5)nc4c3)c3c(N)nccn32)C1
– | – | – | – | – | – | – | – | 11.7% | -1.49% | 0.36% | 1.5% | 10.8% | C[C@@]1(C(=O)Nc2ccc(F)nc2)CCCN1c1nc(Nc2cc(C3CC3)n[nH]2)c2cccn2n1

— ChEMBL document CHEMBL5653615 (J Biol Chem, 2013)
